Test results from patent US20250171463A1 (BIOGEN MA INC., priority 2022, published 2025).

target: T1, EBP (Homo sapiens, UniProt Q15125); experiment: EBP Functional Assay (EBP immunoaffinity LC-MS assay); type: biochemical; conditions: EBP enzyme from HEK293T cells; 30 min with inhibitor, then zymosterol-d5, 37° C., 4 h; percent conversion to dehydrolathosterol-d5 by LC-APCI MRM MS
T1 construct: HEK293T cells were utilized as the source of EBP enzyme; endogenous in cells; host or cells: HEK293T
T1 sequence (Q15125 whole entry): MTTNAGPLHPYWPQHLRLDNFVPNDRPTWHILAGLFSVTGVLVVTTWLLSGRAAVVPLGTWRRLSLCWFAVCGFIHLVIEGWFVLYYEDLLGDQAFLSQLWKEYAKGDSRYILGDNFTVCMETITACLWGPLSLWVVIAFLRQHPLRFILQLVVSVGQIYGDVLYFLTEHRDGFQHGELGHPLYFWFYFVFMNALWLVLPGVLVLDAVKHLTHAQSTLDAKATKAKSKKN
Outline: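 IC50 comes from a 4-parameter logistic fit of zymosterol-d5-to-product percent conversion, measured by LC-APCI MRM MS after sterol extraction. Compounds were preincubated 30 min with EBP from HEK293T cells before deuterated substrate was added for 4 h at 37° C; Tasin-1 served as reference.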

Compound | IC50
Cc1cc(C(F)(F)F)nc(C)c1S(=O)(=O)N1CC2(CN(C3CCOCC3)C2)C1 [Example 100, 2-((2,4-dimethyl-6-(trifluoromethyl)pyridin-3-yl)sulfonyl)-6-(tetrahydro-2H-pyran-4-yl)-2,6-diazaspiro[3.3]heptane] | < 100 nM
Cc1cc(C(F)(F)F)nc(C)c1S(=O)(=O)N1CC2(CN(C3CC4(COC4)C3)C2)C1 [Example 101, 2-((2,4-dimethyl-6-(trifluoromethyl)pyridin-3-yl)sulfonyl)-6-(2-oxaspiro[3.3]heptan-6-yl)-2,6-diazaspiro[3.3]heptane] | 100 to 250 nM
Cc1cc(C(F)(F)F)nc(C)c1S(=O)(=O)N1CC2(CN(CC3CCOCC3)C2)C1 [Example 102] | < 100 nM
Cc1cc(C(F)(F)F)nc(C)c1S(=O)(=O)N1CC2(CN(CC3COC3)C2)C1 [Example 104] | 100 to 250 nM
Cc1ccc(S(=O)(=O)N2CC3(CN(C4CCOCC4)C3)C2)c(C(F)(F)F)n1 [Example 105, 2-((6-methyl-2-(trifluoromethyl)pyridin-3-yl)sulfonyl)-6-(tetrahydro-2H-pyran-4-yl)-2,6-diazaspiro[3.3]heptane] | 100 to 250 nM
Cc1ccc(S(=O)(=O)N2CC3(CN(CC4CCOCC4)C3)C2)c(C(F)(F)F)n1 [Example 106, 2-((6-methyl-2-(trifluoromethyl)pyridin-3-yl)sulfonyl)-6-((tetrahydro-2H-pyran-4-yl)methyl)-2,6-diazaspiro[3.3]heptane] | 100 to 250 nM
O=S(=O)(c1ccc(C2CC2)nc1C(F)(F)F)N1CC2(CN(C3CCOCC3)C2)C1 [Example 107, 2-((6-cyclopropyl-2-(trifluoromethyl)pyridin-3-yl)sulfonyl)-6-(tetrahydro-2H-pyran-4-yl)-2,6-diazaspiro[3.3]heptane] | < 100 nM
O=S(=O)(c1ccc(C2CC2)nc1C(F)(F)F)N1CC2(CN(CC3CCOCC3)C2)C1 [Example 108, 2-((6-cyclopropyl-2-(trifluoromethyl)pyridin-3-yl)sulfonyl)-6-((tetrahydro-2H-pyran-4-yl)methyl)-2,6-diazaspiro[3.3]heptane] | < 100 nM
O=S(=O)(c1ccc(C(F)(F)F)nc1C(F)(F)F)N1CC2(CN(C3CCOCC3)C2)C1 [Example 109, 2-((2,6-bis(trifluoromethyl)pyridin-3-yl)sulfonyl)-6-(tetrahydro-2H-pyran-4-yl)-2,6-diazaspiro[3.3]heptane] | 250 to 4000 nM
O=S(=O)(c1ccc(C(F)(F)F)nc1C(F)(F)F)N1CC2(CN(C3CC4(COC4)C3)C2)C1 [Example 110] | 250 to 4000 nM
O=S(=O)(c1ccc(C(F)(F)F)nc1C(F)(F)F)N1CC2(CN(CC3CCOCC3)C2)C1 [Example 111] | < 100 nM
O=S(=O)(c1ccc(C(F)(F)F)nc1C(F)(F)F)N1CC2(CN(CC3COC3)C2)C1 [Example 112] | 250 to 4000 nM
Cc1nc(C(F)(F)F)ccc1S(=O)(=O)N1CC2(CN(CC3CC4(COC4)C3)C2)C1 [Example 113] | 100 to 250 nM
Cc1nc(C(C)(F)F)ccc1S(=O)(=O)N1CC2(CN(CC3CC4(COC4)C3)C2)C1 [Example 114] | < 100 nM
Cn1nc(C(F)(F)F)cc1S(=O)(=O)N1CC2(CN(CC3CC4(COC4)C3)C2)C1 [Example 115] | < 100 nM
O=S(=O)(c1ccc(C(F)F)nc1C1CC1)N1CC2(CN(C3CCOCC3)C2)C1 [Example 116, 2-((2-cyclopropyl-6-(difluoromethyl)pyridin-3-yl)sulfonyl)-6-(tetrahydro-2H-pyran-4-yl)-2,6-diazaspiro[3.3]heptane] | < 100 nM
O=S(=O)(c1ccc(C(F)F)nc1C1CC1)N1CC2(CN(C3CC4(COC4)C3)C2)C1 [Example 119, 2-((2-cyclopropyl-6-(difluoromethyl)pyridin-3-yl)sulfonyl)-6-(2-oxaspiro[3.3]heptan-6-yl)-2,6-diazaspiro[3.3]heptane] | 100 to 250 nM
O=S(=O)(c1cc(C(F)F)nn1C1CC1)N1CC2(CN(C3CCOCC3)C2)C1 [Example 120, 2-((1-cyclopropyl-3-(difluoromethyl)-1H-pyrazol-5-yl)sulfonyl)-6-(tetrahydro-2H-pyran-4-yl)-2,6-diazaspiro[3.3]heptane] | 100 to 250 nM
O=S(=O)(c1cnc(C(F)(F)F)cc1C1CC1)N1CC2(CN(C3CC4(COC4)C3)C2)C1 [Example 121, 2-((4-cyclopropyl-6-(trifluoromethyl)pyridin-3-yl)sulfonyl)-6-(2-oxaspiro[3.3]heptan-6-yl)-2,6-diazaspiro[3.3]heptane] | 250 to 4000 nM
O=S(=O)(c1cnc(C(F)(F)F)cc1C1CC1)N1CC2(CN(CC3CCOCC3)C2)C1 [Example 122, 2-((4-cyclopropyl-6-(trifluoromethyl)pyridin-3-yl)sulfonyl)-6-((tetrahydro-2H-pyran-4-yl)methyl)-2,6-diazaspiro[3.3]heptane] | < 100 nM
CCc1cc(C(F)(F)F)ncc1S(=O)(=O)N1CC2(CN(C3CC4(COC4)C3)C2)C1 [Example 125, 2-((4-ethyl-6-(trifluoromethyl)pyridin-3-yl)sulfonyl)-6-(2-oxaspiro[3.3]heptan-6-yl)-2,6-diazaspiro[3.3]heptane] | 250 to 4000 nM
CCc1cc(C(F)(F)F)ncc1S(=O)(=O)N1CC2(CN(CC3CCOCC3)C2)C1 [Example 126, 2-((4-ethyl-6-(trifluoromethyl)pyridin-3-yl)sulfonyl)-6-((tetrahydro-2H-pyran-4-yl)methyl)-2,6-diazaspiro[3.3]heptane] | 250 to 4000 nM
Cc1nc(C(F)(F)F)ccc1S(=O)(=O)N1CC2(CN(CC3(C)CCOCC3)C2)C1 [Example 129, 2-((2-methyl-6-(trifluoromethyl)pyridin-3-yl)sulfonyl)-6-((4-methyltetrahydro-2H-pyran-4-yl)methyl)-2,6-diazaspiro[3.3]heptane] | < 100 nM
Cc1nc(C(F)(F)F)ccc1S(=O)(=O)N1CC2(CN(C(C)C3(C)CCOCC3)C2)C1 (stereo not drawn) [Example 131] | 100 to 250 nM

Further lines, results first:

IC50 | Compound
100 to 250 nM | Cc1nc(C(F)(F)F)ccc1S(=O)(=O)N1CC2(CN(C(C)C3(C)COC3)C2)C1 (stereo not drawn) [Example 132]
250 to 4000 nM | Cc1nc(C(F)(F)F)ccc1S(=O)(=O)N1CC2(CN(CC3CCOC3)C2)C1 (stereo not drawn) [Example 133]
100 to 250 nM | Cc1nc(C(F)(F)F)ccc1S(=O)(=O)N1CC2(CN(CC3(C)CCCO3)C2)C1 (stereo not drawn) [Example 134]
100 to 250 nM | Cc1nc(C(F)(F)F)ccc1S(=O)(=O)N1CC2(CN(CC3CCCOC3)C2)C1 (stereo not drawn) [Example 136]
< 100 nM | Cc1nc(C(F)(F)F)ccc1S(=O)(=O)N1CC2(CN(C(C)C3CCCOC3)C2)C1 (stereo not drawn) [Example 137]
250 to 4000 nM | Cc1nc(C(F)(F)F)ccc1S(=O)(=O)N1CC2(CN(CC3CCCO3)C2)C1 (stereo not drawn) [Example 139]
250 to 4000 nM | Cc1nc(C(F)(F)F)ccc1S(=O)(=O)N1CC2(CN(C3CCOC3)C2)C1 (stereo not drawn) [Example 140]
< 100 nM | Cc1nc(C(F)(F)F)ccc1S(=O)(=O)N1CC2(CN(CC3(C)COC3)C2)C1 [Example 141]
< 100 nM | Cc1nc(C(F)(F)F)ccc1S(=O)(=O)N1CC2(CN(C3CCOCC3(C)C)C2)C1 (stereo not drawn) [Example 142]
< 100 nM | Cc1nc(C(F)(F)F)ccc1S(=O)(=O)N1CC2(CN(C3CCOCC3C)C2)C1 (stereo not drawn) [Example 145]
< 100 nM | Cc1nc(C(F)(F)F)ccc1S(=O)(=O)N1CC2(CN(C3CCC(F)(F)CC3)C2)C1 [Example 150]
250 to 4000 nM | Cc1nc(C(F)(F)F)ccc1S(=O)(=O)N1CC2(CN(C3CCCOC3)C2)C1 (stereo not drawn) [Example 151]
< 100 nM | Cc1nc(C(F)(F)F)ccc1S(=O)(=O)N1CC2(CN(CC3CCOCC3)C2)C1 [Example 152]
100 to 250 nM | Cc1nc(C(F)(F)F)ccc1S(=O)(=O)N1CC2(CN(CC3COC3)C2)C1 [Example 154]
250 to 4000 nM | O=S(=O)(c1cccnc1C(F)(F)F)N1CC2(CN(C3CCOCC3)C2)C1 [Example 162, 2-(tetrahydro-2H-pyran-4-yl)-6-((2-(trifluoromethyl)pyridin-3-yl)sulfonyl)-2,6-diazaspiro[3.3]heptane]
< 100 nM | Cc1nc(C2CC2(F)F)ccc1S(=O)(=O)N1CC2(CN(C3CCOCC3)C2)C1 (stereo not drawn) [Example 163, 2-((6-(2,2-difluorocyclopropyl)-2-methylpyridin-3-yl)sulfonyl)-6-(tetrahydro-2H-pyran-4-yl)-2,6-diazaspiro[3.3]heptane]
250 to 4000 nM | Cc1ncccc1S(=O)(=O)N1CC2(CN(C3CCOCC3)C2)C1 [Example 164, 2-((2-methylpyridin-3-yl)sulfonyl)-6-(tetrahydro-2H-pyran-4-yl)-2,6-diazaspiro[3.3]heptane]
250 to 4000 nM | O=S(=O)(c1cnc(Cl)c(C(F)(F)F)c1)N1CC2(CN(C3CCOCC3)C2)C1 [Example 165, 2-((6-chloro-5-(trifluoromethyl)pyridin-3-yl)sulfonyl)-6-(tetrahydro-2H-pyran-4-yl)-2,6-diazaspiro[3.3]heptane]
100 to 250 nM | Cn1nc(C(C)(F)F)cc1S(=O)(=O)N1CC2(CN(C3CCOCC3)C2)C1 [Example 166, 2-((3-(1,1-difluoroethyl)-1-methyl-1H-pyrazol-5-yl)sulfonyl)-6-(tetrahydro-2H-pyran-4-yl)-2,6-diazaspiro[3.3]heptane]
250 to 4000 nM | COc1cc(C)c(S(=O)(=O)N2CC3(CN(C4CCOCC4)C3)C2)cn1 [Example 168, 2-((6-methoxy-4-methylpyridin-3-yl)sulfonyl)-6-(tetrahydro-2H-pyran-4-yl)-2,6-diazaspiro[3.3]heptane]
250 to 4000 nM | Cn1nc2c(c1S(=O)(=O)N1CC3(CN(C4CCOCC4)C3)C1)CCC2 [Example 169, 2-methyl-3-((6-(tetrahydro-2H-pyran-4-yl)-2,6-diazaspiro[3.3]heptan-2-yl)sulfonyl)-2,4,5,6-tetrahydrocyclopenta[c]pyrazole]
250 to 4000 nM | CCN1CC2(C1)CN(S(=O)(=O)c1ccc(C(F)(F)F)nc1C)C2 [Example 170]
250 to 4000 nM | Cc1nc(C(F)(F)F)ccc1S(=O)(=O)N1CC2(CN(CC3CC3C#N)C2)C1 (stereo not drawn) [Example 171]
250 to 4000 nM | COCCOCCCN1CC2(C1)CN(S(=O)(=O)c1ccc(C(F)(F)F)nc1C)C2 [Example 172]
